PubChem BioAssay AID1745844 (Carcinogenic Potency Database (CPDB), 2022)
Values joined by “and” are separate entries in the source; they are usually repeats but may differ in a detail not shown here. Equal values may be shown once. Active and inactive are the calls of the source. The rule behind the calls is not given here.

Test system: rodent lifetime carcinogenesis bioassay, tumor incidence TD50
Assay: chronic cancer bioassays in animals – CPDB, compiled studies (AID 1745844)

[CH3][Hg][Cl]
TD50 (mouse, strain B6C3F1, females, in feed, site: kidney, lesion: renal-cell adenoma, dosed 104 weeks, study length 104 weeks): 65.8 mg/kg/day | TD50 (mouse, strain B6C3F1, males, in feed, site: kidney, lesion: renal-cell adenoma, dosed 104 weeks, study length 104 weeks): 9.83 mg/kg/day | TD50 (mouse, strain B6C3F1, males, in feed, site: kidney, lesion: renal-cell carcinoma, dosed 104 weeks, study length 104 weeks): 4.28 mg/kg/day | TD50 (mouse, strain B6C3F1, males, in feed, site: kidney, lesion: several types, types named in the paper, dosed 104 weeks, study length 104 weeks): 3.19 mg/kg/day | carcinogen call (mouse, strain Charles River CD1, females, in drinking water, site: any site (literature study), lesion: malignant tumor, dosed 143 weeks, study length 151 weeks): negative (inactive) | TD50 (mouse, strain Charles River CD1, females, in drinking water, site: any site (literature study), lesion: several types, types named in the paper, dosed 143 weeks, study length 151 weeks): 2.13 mg/kg/day (inactive) | carcinogen call (mouse, strain Charles River CD1, females, in drinking water, site: lung, lesion: one or several types, types not named, dosed 143 weeks, study length 151 weeks): negative (inactive) | TD50 (mouse, strain Charles River CD1, males, in drinking water, site: any site (literature study), lesion: malignant tumor, dosed 135 weeks, study length 159 weeks): 9.64 mg/kg/day (inactive) | TD50 (mouse, strain Charles River CD1, males, in drinking water, site: any site (literature study), lesion: several types, types named in the paper, dosed 135 weeks, study length 159 weeks): 5.63 mg/kg/day (inactive) | carcinogen call (mouse, strain Charles River CD1, males, in drinking water, site: lung, lesion: one or several types, types not named, dosed 135 weeks, study length 159 weeks): negative (inactive) | carcinogen call (mouse, strain ICR, females, in feed, site: kidney, lesion: adenoma, dosed 80 weeks, study length 80 weeks): negative (inactive) | carcinogen call (mouse, strain ICR, females, in feed, site: kidney, lesion: one or several types, types not named, dosed 52 weeks, study length 52 weeks): negative (inactive) | carcinogen call (mouse, strain ICR, females, in feed, site: kidney, lesion: one or several types, types not named, dosed 78 weeks, study length 78 weeks): negative (inactive) | carcinogen call (mouse, strain ICR, females, in feed, site: kidney, lesion: one or several types, types not named, dosed 104 weeks, study length 104 weeks): negative (inactive) | TD50 (mouse, strain ICR, females, in feed, site: liver, lesion: hemangioma, dosed 80 weeks, study length 80 weeks): 26.1 mg/kg/day (inactive) | carcinogen call (mouse, strain ICR, females, in feed, site: liver, lesion: hepatocellular adenoma, dosed 80 weeks, study length 80 weeks): negative (inactive) | carcinogen call (mouse, strain ICR, females, in feed, site: liver, lesion: hepatocellular carcinoma, dosed 80 weeks, study length 80 weeks): negative (inactive) | TD50 (mouse, strain ICR, females, in feed, site: lung, lesion: adenocarcinoma, dosed 80 weeks, study length 80 weeks): 11.6 mg/kg/day (inactive) | carcinogen call (mouse, strain ICR, females, in feed, site: lung, lesion: adenoma, dosed 80 weeks, study length 80 weeks): negative (inactive) | TD50 (mouse, strain ICR, males, in feed, site: kidney, lesion: adenocarcinoma, dosed 78 weeks, study length 78 weeks): 3.2 mg/kg/day | TD50 (mouse, strain ICR, males, in feed, site: kidney, lesion: adenocarcinoma, dosed 80 weeks, study length 80 weeks): 1.48 mg/kg/day | TD50 (mouse, strain ICR, males, in feed, site: kidney, lesion: adenocarcinoma, dosed 102 weeks, study length 104 weeks): 1.88 mg/kg/day | TD50 (mouse, strain ICR, males, in feed, site: kidney, lesion: adenoma, dosed 80 weeks, study length 80 weeks): 24.1 mg/kg/day | TD50 (mouse, strain ICR, males, in feed, site: kidney, lesion: several types, types named in the paper, dosed 78 weeks, study length 78 weeks): 0.896 mg/kg/day | TD50 (mouse, strain ICR, males, in feed, site: kidney, lesion: several types, types named in the paper, dosed 80 weeks, study length 80 weeks): 1.36 mg/kg/day | TD50 (mouse, strain ICR, males, in feed, site: kidney, lesion: several types, types named in the paper, dosed 102 weeks, study length 104 weeks): 1.69 mg/kg/day | TD50 (mouse, strain ICR, males, in feed, site: lung, lesion: adenocarcinoma, dosed 80 weeks, study length 80 weeks): 5.1 mg/kg/day | TD50 (rat, strain Sprague-Dawley, females, in feed, site: kidney, lesion: adenoma, dosed 130 weeks, study length 130 weeks): 15.7 mg/kg/day (inactive) | carcinogen call (rat, strain Sprague-Dawley, females, in feed, site: liver, lesion: one or several types, types not named, dosed 52 weeks, study length 52 weeks): negative (inactive) | carcinogen call (rat, strain Sprague-Dawley, females, in feed, site: liver, lesion: one or several types, types not named, dosed 78 weeks, study length 78 weeks): negative (inactive) | carcinogen call (rat, strain Sprague-Dawley, females, in feed, site: liver, lesion: one or several types, types not named, dosed 130 weeks, study length 130 weeks): negative (inactive) | carcinogen call (rat, strain Sprague-Dawley, males, in feed, site: liver, lesion: one or several types, types not named, dosed 52 weeks, study length 52 weeks): negative (inactive) | carcinogen call (rat, strain Sprague-Dawley, males, in feed, site: liver, lesion: one or several types, types not named, dosed 78 weeks, study length 78 weeks): negative (inactive) | carcinogen call (rat, strain Sprague-Dawley, males, in feed, site: liver, lesion: one or several types, types not named, dosed 130 weeks, study length 130 weeks): negative (inactive) | carcinogen call (rat, strain Wistar, females, in feed, site: liver, lesion: one or several types, types not named, dosed 104 weeks, study length 104 weeks): negative (inactive) | carcinogen call (rat, strain Wistar, males, in feed, site: liver, lesion: one or several types, types not named, dosed 104 weeks, study length 104 weeks): negative (inactive)

Cc1ccccc1N
TD50 (mouse, strain B6C3F1, females, in feed, site: any site (literature study), lesion: several types, types named in the paper, dosed 102 weeks, study length 102 weeks): 1350 mg/kg/day | TD50 (mouse, strain B6C3F1, females, in feed, site: liver, lesion: hepatocellular adenoma + hepatocellular carcinoma + neoplastic nodule, dosed 102 weeks, study length 102 weeks): 754 mg/kg/day | TD50 (mouse, strain B6C3F1, females, in feed, site: liver, lesion: hepatocellular adenoma + hepatocellular carcinoma, dosed 102 weeks, study length 102 weeks): 754 mg/kg/day | TD50 (mouse, strain B6C3F1, females, in feed, site: liver, lesion: hepatocellular carcinoma, dosed 102 weeks, study length 102 weeks): 1520 mg/kg/day | TD50 (mouse, strain B6C3F1, males, in feed, site: all sites, lesion: hemangioma + hemangiosarcoma, dosed 102 weeks, study length 102 weeks): 926 mg/kg/day | TD50 (mouse, strain B6C3F1, males, in feed, site: all sites, lesion: hemangiosarcoma, dosed 102 weeks, study length 102 weeks): 1220 mg/kg/day | TD50 (mouse, strain B6C3F1, males, in feed, site: liver, lesion: hepatocellular adenoma + hepatocellular carcinoma + neoplastic nodule, dosed 102 weeks, study length 102 weeks): 12700 mg/kg/day | TD50 (mouse, strain CD-1 HaM/ICR, females, in feed, site: all sites, lesion: all vascular tumors, dosed 68 weeks, study length 90 weeks): 1240 mg/kg/day | TD50 (mouse, strain CD-1 HaM/ICR, females, in feed, site: any site (literature study), lesion: several types, types named in the paper, dosed 68 weeks, study length 90 weeks): 699 mg/kg/day | TD50 (mouse, strain CD-1 HaM/ICR, females, in feed, site: liver, lesion: several types, types named in the paper, dosed 68 weeks, study length 90 weeks): 1650 mg/kg/day (inactive) | carcinogen call (mouse, strain CD-1 HaM/ICR, females, in feed, site: lung, lesion: several types, types named in the paper, dosed 68 weeks, study length 90 weeks): negative (inactive) | TD50 (mouse, strain CD-1 HaM/ICR, males, in feed, site: all sites, lesion: all vascular tumors, dosed 68 weeks, study length 90 weeks): 646 mg/kg/day and 660 mg/kg/day | TD50 (mouse, strain CD-1 HaM/ICR, males, in feed, site: any site (literature study), lesion: several types, types named in the paper, dosed 68 weeks, study length 90 weeks): 325 mg/kg/day | TD50 (mouse, strain CD-1 HaM/ICR, males, in feed, site: liver, lesion: several types, types named in the paper, dosed 68 weeks, study length 90 weeks): 1400 mg/kg/day (inactive) | TD50 (mouse, strain CD-1 HaM/ICR, males, in feed, site: lung, lesion: several types, types named in the paper, dosed 68 weeks, study length 90 weeks): 1160 mg/kg/day (inactive) | TD50 (rat, strain Charles River CD (Sprague-Dawley), males, in feed, site: any site (literature study), lesion: several types, types named in the paper, dosed 64 weeks, study length 68 weeks): 36.1 mg/kg/day | TD50 (rat, strain Charles River CD (Sprague-Dawley), males, in feed, site: liver, lesion: several types, types named in the paper, dosed 64 weeks, study length 68 weeks): 2960 mg/kg/day (inactive) | TD50 (rat, strain Charles River CD (Sprague-Dawley), males, in feed, site: subcutaneous tissue, lesion: several types, types named in the paper, dosed 64 weeks, study length 68 weeks): 36.7 mg/kg/day and 38.8 mg/kg/day | TD50 (rat, strain Charles River CD (Sprague-Dawley), males, in feed, site: urinary bladder, lesion: several types, types named in the paper, dosed 64 weeks, study length 68 weeks): 131 mg/kg/day | TD50 (rat, strain Fischer 344, females, in feed, site: any site (literature study), lesion: several types, types named in the paper, dosed 104 weeks, study length 104 weeks): 75.8 mg/kg/day | TD50 (rat, strain Fischer 344, females, in feed, site: mammary gland + multiple organs + spleen + urinary bladder, lesion: adenoma, NOS + fibroadenoma + angiosarcoma + fibrosarcoma + osteosarcoma + sarcoma, NOS + transitional-cell carcinoma + transitional-c, dosed 104 weeks, study length 104 weeks): 77.9 mg/kg/day | TD50 (rat, strain Fischer 344, females, in feed, site: mammary gland, lesion: adenoma, NOS + fibroadenoma, dosed 104 weeks, study length 104 weeks): 119 mg/kg/day | TD50 (rat, strain Fischer 344, females, in feed, site: mammary gland, lesion: fibroadenoma, dosed 104 weeks, study length 104 weeks): 115 mg/kg/day | TD50 (rat, strain Fischer 344, females, in feed, site: multiple organs, lesion: angiosarcoma + fibrosarcoma + osteosarcoma + sarcoma, NOS, dosed 104 weeks, study length 104 weeks): 332 mg/kg/day | TD50 (rat, strain Fischer 344, females, in feed, site: multiple organs, lesion: osteosarcoma, dosed 104 weeks, study length 104 weeks): 423 mg/kg/day | TD50 (rat, strain Fischer 344, females, in feed, site: spleen, lesion: angiosarcoma + osteosarcoma + sarcoma, NOS, dosed 104 weeks, study length 104 weeks): 337 mg/kg/day | TD50 (rat, strain Fischer 344, females, in feed, site: spleen, lesion: angiosarcoma, dosed 104 weeks, study length 104 weeks): 450 mg/kg/day | TD50 (rat, strain Fischer 344, females, in feed, site: urinary bladder, lesion: transitional-cell carcinoma + transitional-cell papilloma, dosed 104 weeks, study length 104 weeks): 175 mg/kg/day | TD50 (rat, strain Fischer 344, females, in feed, site: urinary bladder, lesion: transitional-cell carcinoma, dosed 104 weeks, study length 104 weeks): 185 mg/kg/day | TD50 (rat, strain Fischer 344, males, in feed, site: any site (literature study), lesion: several types, types named in the paper, dosed 102 weeks, study length 104 weeks): 24.4 mg/kg/day | TD50 (rat, strain Fischer 344, males, in feed, site: liver, lesion: hepatocellular adenoma + hepatocellular carcinoma + neoplastic nodule, dosed 102 weeks, study length 104 weeks): 645 mg/kg/day | TD50 (rat, strain Fischer 344, males, in feed, site: liver, lesion: several types, types named in the paper, dosed 72 weeks, study length 93 weeks): 1000 mg/kg/day | TD50 (rat, strain Fischer 344, males, in feed, site: mammary tissue, wider than the gland, lesion: fibroadenoma, dosed 72 weeks, study length 93 weeks): 149 mg/kg/day | TD50 (rat, strain Fischer 344, males, in feed, site: multiple organs + spleen + subcutaneous tissue + tunica vaginalis, lesion: angiosarcoma + fibrosarcoma + mesothelioma + osteosarcoma + sarcoma, NOS + fibroma, dosed 102 weeks, study length 104 weeks): 23.3 mg/kg/day | TD50 (rat, strain Fischer 344, males, in feed, site: multiple organs + tunica vaginalis, lesion: mesothelioma, dosed 102 weeks, study length 104 weeks): 97.4 mg/kg/day | TD50 (rat, strain Fischer 344, males, in feed, site: multiple organs, lesion: angiosarcoma + fibrosarcoma + osteosarcoma + sarcoma, NOS, dosed 102 weeks, study length 104 weeks): 93.2 mg/kg/day | TD50 (rat, strain Fischer 344, males, in feed, site: multiple organs, lesion: fibrosarcoma, dosed 102 weeks, study length 104 weeks): 184 mg/kg/day | TD50 (rat, strain Fischer 344, males, in feed, site: multiple organs, lesion: sarcoma, NOS, dosed 102 weeks, study length 104 weeks): 394 mg/kg/day | TD50 (rat, strain Fischer 344, males, in feed, site: peritoneal cavity, lesion: spindle-cell sarcoma, dosed 72 weeks, study length 93 weeks): 190 mg/kg/day | TD50 (rat, strain Fischer 344, males, in feed, site: skin, lesion: fibroma, dosed 72 weeks, study length 93 weeks): 38.7 mg/kg/day | TD50 (rat, strain Fischer 344, males, in feed, site: spleen, lesion: fibroma, dosed 72 weeks, study length 93 weeks): 167 mg/kg/day | TD50 (rat, strain Fischer 344, males, in feed, site: spleen, lesion: fibroma, dosed 102 weeks, study length 104 weeks): 134 mg/kg/day | TD50 (rat, strain Fischer 344, males, in feed, site: subcutaneous tissue, lesion: fibroma, dosed 102 weeks, study length 104 weeks): 33.3 mg/kg/day | TD50 (rat, strain Fischer 344, males, in feed, site: urinary bladder, lesion: several types, types named in the paper, dosed 72 weeks, study length 93 weeks): 474 mg/kg/day
